Source: paper PMC9944867, “Mechanistic in vitro studies indicate that the clinical drug–drug interactions between protease inhibitors and rosuvastatin are driven by inhibition of intestinal BCRP and hepatic OATP1B1 with minimal contribution from OATP1B3, NTCP and OAT3” (Pharmacology Research & Perspectives, 2023)
Like-named read-outs stand apart in the source and are kept apart here. Marks after values point to notes of the source that are not given here.

What was measured:
[1] = human, in vivo
[2] = test system: intestinal BCRP and hepatic OATP1B1, OATP1B3, NTCP; test: Mechanistic static prediction of rosuvastatin AUC change (AUCR); conditions: predicted AUCR 1.01
[3] = test system: OATP1B1; conditions: probe substrate atorvastatin; ref Karlgren et al.[31]; cited from earlier work
[4] = test system: intestinal BCRP and hepatic OATP1B1, OATP1B3, NTCP; conditions: rosuvastatin; ref Elsby et al.[13]; cited from earlier work
[5] = target: T1, BCRP (Homo sapiens, UniProt Q9UNQ0); conditions: probe substrate pheophorbide A; ref Weiss et al.[15]; cited from earlier work
T1 sequence (Q9UNQ0 1-655): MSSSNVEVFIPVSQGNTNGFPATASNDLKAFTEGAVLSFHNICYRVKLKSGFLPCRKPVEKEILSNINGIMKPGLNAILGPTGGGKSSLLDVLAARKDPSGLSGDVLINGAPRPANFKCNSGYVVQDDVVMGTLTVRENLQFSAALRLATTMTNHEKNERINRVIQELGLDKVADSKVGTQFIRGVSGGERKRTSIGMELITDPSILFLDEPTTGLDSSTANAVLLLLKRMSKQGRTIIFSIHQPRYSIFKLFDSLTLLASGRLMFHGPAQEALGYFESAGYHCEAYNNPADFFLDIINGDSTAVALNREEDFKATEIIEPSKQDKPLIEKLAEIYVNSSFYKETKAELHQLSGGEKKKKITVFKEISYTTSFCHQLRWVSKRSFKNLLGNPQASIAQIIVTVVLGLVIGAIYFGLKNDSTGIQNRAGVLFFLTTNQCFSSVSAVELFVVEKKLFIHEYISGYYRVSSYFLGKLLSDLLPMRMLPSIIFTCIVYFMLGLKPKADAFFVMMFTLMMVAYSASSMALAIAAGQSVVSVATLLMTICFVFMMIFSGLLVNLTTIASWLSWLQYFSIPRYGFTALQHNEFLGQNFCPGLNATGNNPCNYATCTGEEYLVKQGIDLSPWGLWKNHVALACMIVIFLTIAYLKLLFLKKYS

[6] = Pharmacokinetic parameters of protease inhibitors in clinical interaction studies with rosuvastatin; conditions: calculated, clinical dose of Table 5
[7] = target: T2, human OATP1B3 (SLCO1B3) (Homo sapiens, UniProt Q9NPD5); conditions: ≥10x [Iin max u]: atazanavir 50 μM, darunavir 15 μM, lopinavir 5 μM, ritonavir 0.3 μM; [3H]-estradiol 17β-D-glucuronide 0.02 μM
T2 sequence (Q9NPD5 1-702): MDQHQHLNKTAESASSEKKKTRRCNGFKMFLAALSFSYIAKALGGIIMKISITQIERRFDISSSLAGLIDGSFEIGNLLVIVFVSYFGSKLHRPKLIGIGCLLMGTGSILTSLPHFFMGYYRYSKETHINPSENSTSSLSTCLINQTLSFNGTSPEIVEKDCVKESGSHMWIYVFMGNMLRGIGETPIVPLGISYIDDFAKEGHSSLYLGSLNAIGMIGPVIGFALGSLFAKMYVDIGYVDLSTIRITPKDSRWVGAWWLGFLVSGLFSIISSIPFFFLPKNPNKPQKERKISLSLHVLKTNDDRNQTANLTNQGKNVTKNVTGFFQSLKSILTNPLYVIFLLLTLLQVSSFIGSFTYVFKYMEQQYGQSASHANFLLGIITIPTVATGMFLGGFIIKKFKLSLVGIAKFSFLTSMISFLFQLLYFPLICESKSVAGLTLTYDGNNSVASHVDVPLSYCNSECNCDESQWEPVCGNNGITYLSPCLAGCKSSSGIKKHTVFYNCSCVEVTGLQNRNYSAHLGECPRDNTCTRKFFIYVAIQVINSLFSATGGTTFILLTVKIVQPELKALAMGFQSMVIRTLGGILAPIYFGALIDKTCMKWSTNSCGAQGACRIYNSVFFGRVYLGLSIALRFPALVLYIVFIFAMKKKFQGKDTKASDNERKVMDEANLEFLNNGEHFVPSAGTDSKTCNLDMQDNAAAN

| SMILES | [Ig] maximal enterocyte concentration [1] | [Iin max u] unbound maximum hepatic inlet concentration [1] | [Iin max] maximum hepatic inlet concentration [1] | Reduction in NTCP function reflected by predicted AUCR [2] | Published IC50/Ki (OATP1B1) [3] | Predicted AUCR, inhibition of BCRP and OATP1B1 alone (earlier model) [4] | Published IC50/Ki (BCRP) [5] | [Ig] maximal enterocyte concentration ([6]; (FaFg × ka × dose)/Qent) | [Iin max u] unbound maximum hepatic inlet concentration [6] | [Iin max] maximum hepatic inlet concentration [6] | Inhibition of OATP1B3-mediated probe substrate transport, single concentration screen [7] |
| --- | --- | --- | --- | --- | --- | --- | --- | --- | --- | --- | --- |
| Cc1cccc(C)c1OCC(=O)N[C@@H](Cc1ccccc1)[C@@H](O)C[C@H](Cc1ccccc1)NC(=O)[C@H](C(C)C)N1CCCNC1=O [lopinavir] | 42.4 ^d μM | 0.450 µM | 22.5 ^d μM | – | – | – | – | – | – | – | – |
| COC(=O)N[C@H](C(=O)N[C@@H](Cc1ccccc1)[C@@H](O)CN(Cc1ccc(-c2ccccn2)cc1)NC(=O)[C@@H](NC(=O)OC)C(C)(C)C)C(C)(C)C [atazanavir] | – | – | – | 4% | 0.91 (atorvastatin) μM | 2.13 | 69.1 (pheophorbide A) μM | 142 µM | 4.90 µM | 35.0 µM | produced inhibition |
